In PubChem BioAssay (NCI):
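A five-concentration, 48-hour dose response in 96-well plates underlies each endpoint, interpolated linearly between surrounding concentrations. GI50 = concentration required for 50% inhibition of growth. The concentration for full growth arrest is given as TGI.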

Tests used:
Assay in all cases: NCI-60 cell line screen, 48 h
HCT-15 colon = test system: HCT-15 colon
M14 melanoma = test system: M14 melanoma
CCRF-CEM leukemia = test system: CCRF-CEM leukemia
NCI-H226 lung = test system: NCI-H226 lung
T-47D breast = test system: T-47D breast
MOLT-4 leukemia = test system: MOLT-4 leukemia
UACC-257 melanoma = test system: UACC-257 melanoma
MCF7 breast = test system: MCF7 breast
BT-549 breast = test system: BT-549 breast
SR leukemia = test system: SR leukemia
EKVX NSCLC = test system: EKVX NSCLC
SK-MEL-5 melanoma = test system: SK-MEL-5 melanoma
NCI-H460 lung = test system: NCI-H460 lung
A549 NSCLC = test system: A549 NSCLC
NCI/ADR-RES ovarian = test system: NCI/ADR-RES ovarian
RPMI-8226 leukemia = test system: RPMI-8226 leukemia
SF-268 CNS = test system: SF-268 CNS
NCI-H23 lung = test system: NCI-H23 lung
OVCAR-8 ovarian = test system: OVCAR-8 ovarian
HT29 colon = test system: HT29 colon
HOP-92 NSCLC = test system: HOP-92 NSCLC
HS 578T breast = test system: HS 578T breast
NCI-H522 lung = test system: NCI-H522 lung
SF-539 CNS = test system: SF-539 CNS
SK-OV-3 ovarian = test system: SK-OV-3 ovarian
TK-10 renal = test system: TK-10 renal
SK-MEL-28 melanoma = test system: SK-MEL-28 melanoma
MDA-MB-231 breast = test system: MDA-MB-231 breast
LOX IMVI melanoma = test system: LOX IMVI melanoma
U251 CNS = test system: U251 CNS
ACHN renal = test system: ACHN renal
SK-MEL-2 melanoma = test system: SK-MEL-2 melanoma
A498 renal = test system: A498 renal
HOP-62 NSCLC = test system: HOP-62 NSCLC
UO-31 renal = test system: UO-31 renal
MALME-3M melanoma = test system: MALME-3M melanoma
SW-620 colon = test system: SW-620 colon
786-0 renal = test system: 786-0 renal
MDA-MB-435 = test system: MDA-MB-435
K-562 leukemia = test system: K-562 leukemia
OVCAR-3 ovarian = test system: OVCAR-3 ovarian
HL-60(TB) leukemia = test system: HL-60(TB) leukemia
SNB-19 CNS = test system: SNB-19 CNS
UACC-62 melanoma = test system: UACC-62 melanoma
CAKI-1 renal = test system: CAKI-1 renal
SN12C renal = test system: SN12C renal
HCT-116 colon = test system: HCT-116 colon
OVCAR-5 ovarian = test system: OVCAR-5 ovarian
SF-295 CNS = test system: SF-295 CNS
OVCAR-4 ovarian = test system: OVCAR-4 ovarian
RXF 393 renal = test system: RXF 393 renal
KM12 colon = test system: KM12 colon
DU-145 prostate = test system: DU-145 prostate
COLO 205 colon = test system: COLO 205 colon
HCC-2998 colon = test system: HCC-2998 colon
IGROV1 ovarian = test system: IGROV1 ovarian
PC-3 prostate = test system: PC-3 prostate

## Cn1cc(-c2nnc(N)nc2-c2c[nH]c3ccc(F)cc23)c2cc(Br)ccc21
HCT-15 colon
  GI50: 0.591 µM
  TGI: 13.1 µM
M14 melanoma
  GI50: 1.3 µM
  TGI: 12.3 µM
CCRF-CEM leukemia
  GI50: 2.29 µM
  TGI: > 100 µM
NCI-H226 lung
  GI50: 3.06 µM
  TGI: 24.4 µM
T-47D breast
  GI50: 1.91 µM
  TGI: 19.9 µM
MOLT-4 leukemia
  GI50: 1.38 µM
  TGI: > 100 µM
UACC-257 melanoma
  GI50: 4.71 µM
  TGI: 19.3 µM
MCF7 breast
  GI50: 0.7 µM
  TGI: 11.2 µM
BT-549 breast
  GI50: 2.67 µM
  TGI: 17.6 µM
SR leukemia
  GI50: 0.671 µM
  TGI: > 100 µM
EKVX NSCLC
  GI50: 3.02 µM
  TGI: 15.8 µM
SK-MEL-5 melanoma
  GI50: 1.15 µM
  TGI: 2.71 µM
NCI-H460 lung
  GI50: 0.611 µM
  TGI: 10.8 µM
A549 NSCLC
  GI50: 2.11 µM
  TGI: 46.7 µM
NCI/ADR-RES ovarian
  GI50: 2.25 µM
  TGI: 22.9 µM
RPMI-8226 leukemia
  GI50: 2.29 µM
  TGI: 43.4 µM
SF-268 CNS
  GI50: 2.73 µM
  TGI: 20.1 µM
NCI-H23 lung
  GI50: 2.08 µM
  TGI: 10.4 µM
OVCAR-8 ovarian
  GI50: 2.98 µM
  TGI: 20.7 µM
HT29 colon
  GI50: 0.458 µM
  TGI: 10.8 µM
HOP-92 NSCLC
  GI50: 1.7 µM
  TGI: 13.1 µM
HS 578T breast
  GI50: 2.04 µM
  TGI: 8.17 µM
NCI-H522 lung
  GI50: 0.933 µM
  TGI: 8.28 µM
SF-539 CNS
  GI50: 1.88 µM
  TGI: 8.7 µM
SK-OV-3 ovarian
  GI50: 2.53 µM
  TGI: 15.1 µM
TK-10 renal
  GI50: 5.18 µM
  TGI: 38.9 µM
SK-MEL-28 melanoma
  GI50: 2.98 µM
  TGI: 17.6 µM
MDA-MB-231 breast
  GI50: 2.3 µM
  TGI: 16.7 µM
LOX IMVI melanoma
  GI50: 1.19 µM
  TGI: 14 µM
U251 CNS
  GI50: 2.43 µM
  TGI: 14.3 µM
ACHN renal
  GI50: 2.8 µM
  TGI: 13.6 µM
SK-MEL-2 melanoma
  GI50: 2.06 µM
  TGI: 10.5 µM
A498 renal
  GI50: 1.54 µM
  TGI: 4.84 µM
HOP-62 NSCLC
  GI50: 1.64 µM
  TGI: 14.6 µM
UO-31 renal
  GI50: 1.76 µM
  TGI: 13.9 µM
MALME-3M melanoma
  GI50: 1.32 µM
  TGI: 16.6 µM
SW-620 colon
  GI50: 0.658 µM
  TGI: 14.2 µM
786-0 renal
  GI50: 3.79 µM
  TGI: 22.4 µM
MDA-MB-435
  GI50: 0.28 µM
  TGI: 0.829 µM
K-562 leukemia
  GI50: 0.453 µM
  TGI: > 100 µM
OVCAR-3 ovarian
  GI50: 1.15 µM
  TGI: 9.57 µM
HL-60(TB) leukemia
  GI50: 0.707 µM
  TGI: > 100 µM
SNB-19 CNS
  GI50: 2.56 µM
  TGI: 14.8 µM
UACC-62 melanoma
  GI50: 0.65 µM
  TGI: 12.6 µM
CAKI-1 renal
  GI50: 0.668 µM
  TGI: 12.5 µM
SN12C renal
  GI50: 3.12 µM
  TGI: 17.4 µM
HCT-116 colon
  GI50: 1.08 µM
  TGI: 11.1 µM
OVCAR-5 ovarian
  GI50: 3.15 µM
  TGI: 16.7 µM
SF-295 CNS
  GI50: 0.792 µM
  TGI: 5.08 µM
OVCAR-4 ovarian
  GI50: 2.91 µM
  TGI: 13.1 µM
RXF 393 renal
  GI50: 1.38 µM
  TGI: 3.88 µM
KM12 colon
  GI50: 0.875 µM
  TGI: 14.6 µM
DU-145 prostate
  GI50: 2.91 µM
  TGI: 26.9 µM
COLO 205 colon
  GI50: 0.64 µM
  TGI: 3.94 µM
HCC-2998 colon
  GI50: 2.99 µM
  TGI: 12.5 µM
IGROV1 ovarian
  GI50: 0.881 µM
  TGI: 12.7 µM
PC-3 prostate
  GI50: 0.991 µM
  TGI: 20.6 µM
